{"source": "ChEMBL document CHEMBL1201862", "about": "“PubChem BioAssay data set” (2004)", "key": {"[1]": {"experiment": "bead-based luminescence quenchers, dual-tagged ARNT – biochemical, AlphaScreen, cherry-pick, artefact control for ARNT-TACC3 interaction inhibitor project, dose response (AID 651705);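 note: AlphaScreen bead proximity signal that flags compounds interfering with the detection technology; potency reflects signal decrease which marks the compound as an assay artifact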", "type": "functional"}, "[2]": {"biological_target": "T1, Corticotropin-releasing factor receptor 2/Corticotropin-releasing factor-binding protein (Homo sapiens, UniProt P24387+Q13324)", "T1 sequence (Q13324 whole entry)": "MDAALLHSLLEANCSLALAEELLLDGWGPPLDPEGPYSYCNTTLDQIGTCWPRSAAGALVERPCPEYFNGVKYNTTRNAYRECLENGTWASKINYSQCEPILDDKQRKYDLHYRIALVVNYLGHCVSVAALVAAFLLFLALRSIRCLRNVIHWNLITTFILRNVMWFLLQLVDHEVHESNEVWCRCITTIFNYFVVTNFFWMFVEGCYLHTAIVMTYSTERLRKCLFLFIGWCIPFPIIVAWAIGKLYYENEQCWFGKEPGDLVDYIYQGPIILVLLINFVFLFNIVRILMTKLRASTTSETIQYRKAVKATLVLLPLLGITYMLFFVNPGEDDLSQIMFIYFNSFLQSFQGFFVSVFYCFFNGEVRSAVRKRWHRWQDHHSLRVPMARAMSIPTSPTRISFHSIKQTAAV", "T1 sequence (P24387 whole entry)": "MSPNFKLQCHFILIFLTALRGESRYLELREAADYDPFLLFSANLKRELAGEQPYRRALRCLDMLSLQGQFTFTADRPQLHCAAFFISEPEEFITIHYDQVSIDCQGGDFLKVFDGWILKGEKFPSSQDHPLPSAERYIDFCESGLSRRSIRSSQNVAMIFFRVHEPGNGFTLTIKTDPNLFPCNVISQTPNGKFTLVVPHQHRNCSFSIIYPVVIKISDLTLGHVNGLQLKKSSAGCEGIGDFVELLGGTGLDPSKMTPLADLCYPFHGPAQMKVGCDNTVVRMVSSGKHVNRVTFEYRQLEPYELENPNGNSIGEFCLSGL", "experiment": "activators of CRF receptor 2 with binding protein – uHTS hits, confirmation (AID 602473)", "type": "functional", "details": "read-out: EC50_Mean"}, "[3]": {"biological_target": "T1, Corticotropin-releasing factor receptor 2/Corticotropin-releasing factor-binding protein", "experiment": "Dose Response confirmation of uHTS hits for small molecule antagonists of the CRF-binding protein and CRF-R2 receptor complex.", "type": "functional", "details": "read-out: IC50_Mean"}, "[4]": {"experiment": "Luminescence Cell-Based Dose Retest to Confirm Inhibitors of Cancer Stem Cells. [Related pubchem assays (depositor defined):AID2717, AID2721]", "type": "functional", "details": "Homo sapiens"}, "[5]": {"experiment": "blockers of CRF-binding protein–CRF-R2 complex – cell-based, uHTS hits, 384-well, dose response (AID 651639)", "type": "functional, Homo sapiens", "details": "read-out: IC50_Mean"}, "[6]": {"biological_target": "T2, Low molecular weight phosphotyrosine protein phosphatase (Homo sapiens, UniProt P24666)", "T2 sequence (P24666 whole entry)": "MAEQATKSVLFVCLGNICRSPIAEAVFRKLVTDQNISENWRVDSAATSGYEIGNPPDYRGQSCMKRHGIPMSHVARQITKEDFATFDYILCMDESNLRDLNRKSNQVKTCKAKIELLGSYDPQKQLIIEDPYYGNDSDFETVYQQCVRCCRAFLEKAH", "type": "functional", "details": "read-out: IC50_Mean"}, "[7]": {"biological_target": "T2, Low molecular weight phosphotyrosine protein phosphatase", "type": "functional", "details": "read-out: IC50_Mean", "remark": "listed apart in the source"}, "Nonstructural protein 1": {"biological_target": "Nonstructural protein 1 (Influenza A virus, UniProt Q194T2)", "sequence (Q194T2 whole entry)": "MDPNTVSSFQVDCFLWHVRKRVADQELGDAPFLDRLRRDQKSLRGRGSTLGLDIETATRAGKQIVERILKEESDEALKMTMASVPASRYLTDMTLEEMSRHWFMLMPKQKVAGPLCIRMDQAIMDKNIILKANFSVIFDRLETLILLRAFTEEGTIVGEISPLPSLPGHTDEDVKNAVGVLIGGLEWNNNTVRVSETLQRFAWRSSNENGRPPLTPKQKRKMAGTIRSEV", "type": "functional, Influenza A virus (A/California/07/2009(H1N1))"}, "Insulin-degrading enzyme [8]": {"biological_target": "T3, Insulin-degrading enzyme (Homo sapiens, UniProt P14735)", "T3 sequence (P14735 whole entry)": "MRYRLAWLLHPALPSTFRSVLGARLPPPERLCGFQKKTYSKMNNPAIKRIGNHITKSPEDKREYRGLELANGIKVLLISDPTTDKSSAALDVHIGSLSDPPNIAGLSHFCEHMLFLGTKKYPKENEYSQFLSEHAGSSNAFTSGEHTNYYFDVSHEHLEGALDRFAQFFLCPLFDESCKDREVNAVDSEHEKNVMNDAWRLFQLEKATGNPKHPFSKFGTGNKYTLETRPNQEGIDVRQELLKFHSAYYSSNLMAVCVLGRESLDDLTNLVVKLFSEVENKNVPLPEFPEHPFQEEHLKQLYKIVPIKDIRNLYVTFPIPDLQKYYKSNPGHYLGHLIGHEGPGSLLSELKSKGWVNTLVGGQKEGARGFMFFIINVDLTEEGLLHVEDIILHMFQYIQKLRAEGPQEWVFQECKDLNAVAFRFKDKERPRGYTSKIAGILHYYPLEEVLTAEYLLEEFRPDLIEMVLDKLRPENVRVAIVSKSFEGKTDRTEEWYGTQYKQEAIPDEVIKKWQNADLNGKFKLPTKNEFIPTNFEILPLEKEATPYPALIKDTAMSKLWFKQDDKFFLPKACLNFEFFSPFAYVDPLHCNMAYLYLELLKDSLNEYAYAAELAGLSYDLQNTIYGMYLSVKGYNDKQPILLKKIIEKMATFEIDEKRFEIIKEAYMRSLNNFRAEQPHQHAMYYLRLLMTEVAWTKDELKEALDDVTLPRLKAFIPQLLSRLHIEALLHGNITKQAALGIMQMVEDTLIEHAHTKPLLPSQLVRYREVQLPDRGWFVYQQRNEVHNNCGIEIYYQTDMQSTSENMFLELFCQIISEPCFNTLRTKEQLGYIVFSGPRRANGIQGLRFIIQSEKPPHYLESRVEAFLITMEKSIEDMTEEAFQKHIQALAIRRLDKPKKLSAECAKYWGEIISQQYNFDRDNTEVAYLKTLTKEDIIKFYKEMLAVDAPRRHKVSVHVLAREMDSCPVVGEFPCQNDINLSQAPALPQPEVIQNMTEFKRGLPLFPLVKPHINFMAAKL", "experiment": "cellular IDE activation of Abeta substrate cleavage – fluorescence polarization, HEK cells, dose response (AID 588439)", "type": "functional, cell-based"}, "Insulin-degrading enzyme [9]": {"biological_target": "T3, Insulin-degrading enzyme", "experiment": "recombinant IDE activation, cell-free – biochemical, fluorescence polarization, counter-screen for IDE activator project, dose response (AID 588681)"}, "HEK293 [10]": {"tested_on": "HEK293", "experiment": "optical interference in Abeta FP readout, dose response, artefact control for IDE activator project, biochemical, fluorescence polarization (AID 588442)", "type": "functional, cell-based", "details": "Homo sapiens"}, "HEK293 [11]": {"tested_on": "HEK293", "experiment": "membrane integrity loss in HEK cells – cell-based, fluorescence, cytotoxicity control for IDE activator project, dose response (AID 588440);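 note: cytotoxicity by LDH release measuring loss of membrane integrity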", "type": "functional", "details": "Homo sapiens"}, "Cytochrome P450 2D6": {"biological_target": "Cytochrome P450 2D6 (Homo sapiens, UniProt P10635)", "sequence (P10635 whole entry)": "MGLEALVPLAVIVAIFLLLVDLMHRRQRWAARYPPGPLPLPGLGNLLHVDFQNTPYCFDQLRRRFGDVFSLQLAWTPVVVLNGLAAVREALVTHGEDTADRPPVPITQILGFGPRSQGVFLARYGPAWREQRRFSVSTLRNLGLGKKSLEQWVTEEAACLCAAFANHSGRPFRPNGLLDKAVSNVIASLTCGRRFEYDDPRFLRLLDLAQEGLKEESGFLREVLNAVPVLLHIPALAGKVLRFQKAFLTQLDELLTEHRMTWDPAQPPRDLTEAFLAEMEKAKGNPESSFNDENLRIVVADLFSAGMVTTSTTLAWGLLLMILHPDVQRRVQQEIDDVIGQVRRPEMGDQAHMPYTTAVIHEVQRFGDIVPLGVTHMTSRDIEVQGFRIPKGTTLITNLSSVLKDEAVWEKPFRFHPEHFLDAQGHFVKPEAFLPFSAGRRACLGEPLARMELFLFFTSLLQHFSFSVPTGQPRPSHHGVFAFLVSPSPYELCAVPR"}}, "note": "Calls of active or inactive are those of the source."}
{"molecule": "Cc1cccc(C(=O)Nc2nnc(C3=COCCO3)o2)c1", "values": [{"measurement": "AC50", "setting": "[1]", "result": "128 µM (active)"}]}
{"molecule": "CCN(c1ccccc1)c1nc(C#N)nc(N(CC)c2ccccc2)n1", "values": [{"measurement": "EC50", "setting": "[2]", "result": "> 53 µM (inactive)"}, {"measurement": "IC50", "setting": "[3]", "result": "0.723 µM (active)"}, {"measurement": "AC50", "setting": "[4]", "result": "3.66 µM (active)"}, {"measurement": "IC50", "setting": "[5]", "result": "6 µM (active)"}]}
{"molecule": "O=C(OCCNc1nc(-c2ccccc2)nc2ccccc12)c1cccnc1", "values": [{"measurement": "IC50", "setting": "[6]", "result": "23.1 µM (inactive)"}, {"measurement": "IC50", "setting": "[7]", "result": "7.51 µM (active)"}]}
{"molecule": "O=C(O)c1ccc(N=Nc2c(O)ccc3ncccc23)cc1", "values": [{"measurement": "IC50", "setting": "Nonstructural protein 1", "result": "3.07 µM (active)"}, {"measurement": "EC50", "setting": "Insulin-degrading enzyme [8]", "result": "7.38 µM (active)"}, {"measurement": "EC50", "setting": "Insulin-degrading enzyme [9]", "result": "6.69 µM (active)"}, {"measurement": "EC50", "setting": "HEK293 [10]", "result": "30.9 µM (inactive)"}, {"measurement": "IC50", "setting": "HEK293 [11]", "result": "> 89.2 µM (inactive)"}]}
{"molecule": "Cc1c(CCO)c(=O)n(-c2ccccc2)n1S(=O)(=O)c1c(Cl)cc(Cl)cc1Cl", "values": [{"measurement": "AC50", "setting": "Cytochrome P450 2D6", "result": "7.94 µM (inconclusive)"}, {"measurement": "AC50", "setting": "[1]", "result": "76.8 µM (active)"}]}
